Measurements: patent US6184230A, “Anti-helicobacter pylori pharmaceutical composition” (Yamanouchi Pharmaceutical Co., Ltd., priority 1997, dated 2001)
Converted amounts (≈) assume the structure as drawn.

Legend:
Type in all cases: cell-based
[1] = test system: Helicobacter pylori ATCC 43504; experiment: Measurement of antibacterial activity (in vitro, MIC on Brucella agar), Example 2; conditions: ATCC43504, Brucella agar medium (0.1% β-cyclodextrin), 37° C., 3 days (72 hours), N2 80%, CO2 15%, O2 5%
Experimental: An in vitro test of the aforementioned substance was carried out in the following manner.
Measurement of antibacterial activity
(§1) Preparation of Antibacterial Substance-containing Agar Plate
(§2) The substance to be evaluated was dissolved in 100% dimethyl sulfoxide (DMSO) and diluted by 2-fold serial dilution. Each of the dilution solutions was put into a sterilized round Petri dish and mixed with 10 ml of Brucella agar medium (0.1% β-cyclodextrin) which had been sterilized and kept at 50° C., and the mixture was solidified. Final concentration of DMSO becomes 1% or less.
(§3) Preparation of Inoculation Material and Judgment of Test Results
A Helicobacter pylori strain, for example Helicobacter pylori ATCC 43504, was cultured at 37° C. for 3 days in a multi gas incubator (N2 : 80%, CO2 : 15%, O2: 5 %) using Brucella agar medium (containing 5% calf serum albumin) and then prepared into a cell suspension of about 10^8 cells/1 ml using Brucella broth based on its turbidity. The cell suspension was diluted 100 times with Brucella broth, and about 5 μl portion of the dilution was inoculated onto the surface of the drug-containing agar medium using a microplanter. The thus inoculated agar plate was cultured at 37° C. for 3 days (72 hours) in the aforementioned multi gas incubator. […]

Escherichia coli 0-1 = experiment: In vitro test on facultative anaerobes and aerobes (MIC), Example 3; conditions: 01; Escherichia coli 0-1, Muller-Hinton agar, 37° C., 18 hours
Experimental: (§4) An in vitro test on facultative anaerobes and aerobes was carried out in the following manner.
as §1
as §2, with “Muller-Hinton” for “Brucella”, “medium” for “medium (0.1% β-cyclodextrin)”
as §3
(§5) Each strain to be tested was cultured overnight in an incubator set at 37° C. using Muller-Hinton broth, and the resulting broth was diluted to a density of about 10^6 cells/1 ml using Muller-Hinton broth. About 5 μl portion of the dilution was inoculated onto the surface of the drug-containing agar medium using a microplanter. The thus inoculated agar plate was cultured at 37° C. for 18 hours in an incubator. After completion of the culturing, the agar plate was observed, and the minimum drug concentration by which cell growth was not observed was defined as MIC.

[2] = test system: Pseudomonas aeruginosa NCTC 10490; experiment: as above; conditions: NCTC10490; Pseudomonas aeruginosa NCTC 10490, Muller-Hinton agar, 37° C., 18 hours
Experimental: as §4, §1
as §2, with “Muller-Hinton” for “Brucella”, “medium” for “medium (0.1% β-cyclodextrin)”
as §3, §5

[3] = test system: Staphylococcus aureus FDA 209P; experiment: as above; conditions: FDA209P, Muller-Hinton agar, 37° C., 18 hours
Experimental: as §4, §1
as §2, with “Muller-Hinton” for “Brucella”, “medium” for “medium (0.1% β-cyclodextrin)”
as §3, §5

[4] = test system: Bacteroides fragiris GAI 5562; experiment: In vitro test on anaerobes (MIC), Example 4; conditions: GAI5562, 18 h
Experimental: (§6) An in vitro test on anaerobes was carried out in the following manner.
as §1
as §2, with “GAM” for “Brucella”, “medium” for “medium (0.1% β-cyclodextrin)”
as §3
(§7) Each strain to be tested was cultured overnight at 37° C. in GAM broth using an anaerobic culturing apparatus whose inside atmosphere had been replaced with a mixed gas system of 80% N2, 10% CO2 and 10% H2, and the resulting broth was diluted to a density of about 10^6 cells/1 ml using the same GAM broth. About 5 μl portion of the dilution was inoculated onto the surface of the drug-containing agar medium using a microplanter. The thus inoculated agar plate was cultured at 37° C. for 18 hours using the anaerobic culturing apparatus. After completion of the culturing, the agar plate was observed, and the minimum drug concentration by which cell growth was not observed was defined as MIC.

[5] = test system: Bifidobacterium bifidum CAYA 21-1; experiment: In vitro test on anaerobes (MIC), Example 4; conditions: CAYA211, 18 h
Experimental: as §6, §1
as §2, with “GAM” for “Brucella”, “medium” for “medium (0.1% β-cyclodextrin)”
as §3, §7

[6] = test system: Peptostreptococcus productus CAYA 12-2; experiment: In vitro test on anaerobes (MIC), Example 4; conditions: Blautia producta, CAYA122, 18 h
Experimental: as §6, §1
as §2, with “GAM” for “Brucella”, “medium” for “medium (0.1% β-cyclodextrin)”
as §3, §7

Helicobacter pylori = experiment: Anti-Helicobacter pylori activity (general statement)
other bacteria = experiment: Selectivity, influence upon other bacteria (general statement)

Compound	MIC [1] [µg/mL]	MIC (Escherichia coli 0-1) [µg/mL]	MIC [2] [µg/mL]	MIC [3] [µg/mL]	MIC [4] [µg/mL]	MIC [5] [µg/mL]	MIC [6] [µg/mL]	anti-Helicobacter pylori activity (Helicobacter pylori)	influences upon other bacteria (other bacteria)	selectivity (other bacteria)
CCCCCC/C=C/Cc1c(C)c(=O)c2ccccc2n1O [1-hydroxy-2-(2-trans-nonenyl)-3-methyl-4(1H)-quinolone]	0.025 (≈ 0.0835 µM)	≥ 12.5	≥ 12.5	≥ 12.5	> 25	> 25	> 25	–	–	–
CCCCCC/C=C/Cc1c(C)c(=O)c2ccccc2n1O [YL-02729S]	–	–	–	–	–	–	–	excellent anti-Helicobacter pylori activity	does not exert influences upon other bacteria	high selectivity
